Test [1] addresses Cholinesterase (Homo sapiens) (UniProt P06276). Conditions: 10 ug/ml.
Description: Inhibition of BChE (unknown origin) at 10 ug/ml using butyrylthiocholine iodide as substrate pretreated for 15 mins followed by substrate addition and measured by DTNB reagent based assay relative to control
The target is the same in test [2]. Conditions: 14.7 uM.
Description: Inhibition of BChE (unknown origin) at 14.7 uM using butyrylthiocholine iodide as substrate pretreated for 15 mins followed by substrate addition and measured by DTNB reagent based assay
The species entered for test [3] is Homo sapiens. Conditions: 147.2 uM.
Description: Inhibition of alpha-chymotrypsin (unknown origin) at 147.2 uM using N-succinyl-L-phenylalanine-p-nitroanilide as substrate pretreated for 25 mins followed by substrate addition relative to control
The species named for test [4] is Homo sapiens. Conditions: 44.1 uM.
Description: Inhibition of elastase (unknown origin) at 44.1 uM using N-succinyl-Ala-Ala-Ala-p-nitroanilide as substrate pretreated for 25 mins followed by substrate addition relative to control
Test [5] is filed under the species Homo sapiens. As to conditions: 1.5 uM.
Description: Inhibition of GST (unknown origin) at 1.5 uM using CDNB as substrate relative to control
The test system of another test is HCT-116. Put plainly: cells. As to conditions: Homo sapiens, HCT-116, 48 h, read-out: GI.
The next test deals with MCF7. Put plainly: cells. Conditions: Homo sapiens, MCF7, 48 h, read-out: GI.
In another test the test system is HepG2. The test can be described thus: cells. Conditions: Homo sapiens, HepG2, 48 h, read-out: GI.
The test system of a further test is HeLa. The test can be described thus: cells. Conditions: Homo sapiens, 48 h, read-out: GI.
Another test deals with SK-MEL-5. Put plainly: cells. As to conditions: Homo sapiens, SK-MEL-5, 48 h, read-out: GI.
A further test deals with PC-12. The test can be described thus: cells. As to conditions: Rattus norvegicus, PC-12, 3 h, read-out: Activity.

Activity calls are given as the source filed them. The calls are words filed in the database; no cut-off is given here. Some results are limits rather than exact numbers.

Sequence of Cholinesterase (Homo sapiens) (P06276 whole entry): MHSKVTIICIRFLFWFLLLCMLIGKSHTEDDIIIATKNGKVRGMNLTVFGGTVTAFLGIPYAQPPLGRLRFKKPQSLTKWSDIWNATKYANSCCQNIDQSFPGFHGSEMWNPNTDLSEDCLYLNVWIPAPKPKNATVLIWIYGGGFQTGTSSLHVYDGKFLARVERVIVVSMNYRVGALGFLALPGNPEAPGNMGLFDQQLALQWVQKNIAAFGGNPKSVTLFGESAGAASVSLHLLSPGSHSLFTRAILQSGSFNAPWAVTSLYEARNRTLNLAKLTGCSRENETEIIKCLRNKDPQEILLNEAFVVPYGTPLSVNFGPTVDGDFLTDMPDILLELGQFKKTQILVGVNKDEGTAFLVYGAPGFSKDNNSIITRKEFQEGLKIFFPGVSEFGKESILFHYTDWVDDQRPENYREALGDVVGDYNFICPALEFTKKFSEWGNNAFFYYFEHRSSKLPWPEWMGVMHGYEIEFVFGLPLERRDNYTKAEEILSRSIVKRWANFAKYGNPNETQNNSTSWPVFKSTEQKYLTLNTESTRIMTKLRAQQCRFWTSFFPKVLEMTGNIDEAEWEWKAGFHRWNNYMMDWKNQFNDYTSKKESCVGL
Description for HCT-116: Growth inhibition of human HCT116 cells at 147.2 uM after 48 hrs by methylene blue staining based assay relative to control
Description for HeLa: Growth inhibition of human HeLa cells at 147.2 uM after 48 hrs by methylene blue staining based assay relative to control
Description for HepG2: Growth inhibition of human HepG2 cells at 147.2 uM after 48 hrs by methylene blue staining based assay relative to control
Description for MCF7: Growth inhibition of human MCF7 cells at 147.2 uM after 48 hrs by methylene blue staining based assay relative to control
Description for SK-MEL-5: Growth inhibition of human SK-MEL-5 cells at 147.2 uM after 48 hrs by methylene blue staining based assay relative to control

As to `Oc1ccc(-c2oc3cc(O)c4c5c3c2-c2cc(O)cc(O)c2[C@H](c2ccc(O)cc2)[C@@H]5[C@H](c2ccc(O)cc2)[C@@H]4c2cc(O)cc(O)c2)cc1`, the inhibition was 19.7% in test [1], 55.7% in the test listed under Homo sapiens [3], 10.2% in the test listed under Homo sapiens [4] and 34.7% in the test listed under Homo sapiens [5]. The inhibition result in test [2] is “inactive”. For the same molecule, the inhibition of growth at 147.2 µM in the test on HCT-116, with MCF7, in the test with HepG2, with HeLa and with SK-MEL-5 was under 50% each time. Moreover, in the test with PC-12, the viability at 1.5 µM is 88.3%.

What is called inhibition is the share of the control response that was lost under treatment.

(Values after ChEMBL document CHEMBL4145670, “A Bioactive Resveratrol Trimer from the Stem Bark of the Sri Lankan Endemic Plant Vateria copallifera” (J Nat Prod, 2018).)
